Results taken from patent publication US12084420B2, “Indoline compounds for inhibiting KIF18A” (Volastra Therapeutics, Inc., priority 2021, dated 2024).

biological target: hKIF18A (1-374) (Homo sapiens (Human), UniProt Q8NI77); assay: Inhibition of KIF18A microtubule-dependent ATPase activity (ADP-Glo); conditions: not given
Sequence (Q8NI77 whole entry, looked up): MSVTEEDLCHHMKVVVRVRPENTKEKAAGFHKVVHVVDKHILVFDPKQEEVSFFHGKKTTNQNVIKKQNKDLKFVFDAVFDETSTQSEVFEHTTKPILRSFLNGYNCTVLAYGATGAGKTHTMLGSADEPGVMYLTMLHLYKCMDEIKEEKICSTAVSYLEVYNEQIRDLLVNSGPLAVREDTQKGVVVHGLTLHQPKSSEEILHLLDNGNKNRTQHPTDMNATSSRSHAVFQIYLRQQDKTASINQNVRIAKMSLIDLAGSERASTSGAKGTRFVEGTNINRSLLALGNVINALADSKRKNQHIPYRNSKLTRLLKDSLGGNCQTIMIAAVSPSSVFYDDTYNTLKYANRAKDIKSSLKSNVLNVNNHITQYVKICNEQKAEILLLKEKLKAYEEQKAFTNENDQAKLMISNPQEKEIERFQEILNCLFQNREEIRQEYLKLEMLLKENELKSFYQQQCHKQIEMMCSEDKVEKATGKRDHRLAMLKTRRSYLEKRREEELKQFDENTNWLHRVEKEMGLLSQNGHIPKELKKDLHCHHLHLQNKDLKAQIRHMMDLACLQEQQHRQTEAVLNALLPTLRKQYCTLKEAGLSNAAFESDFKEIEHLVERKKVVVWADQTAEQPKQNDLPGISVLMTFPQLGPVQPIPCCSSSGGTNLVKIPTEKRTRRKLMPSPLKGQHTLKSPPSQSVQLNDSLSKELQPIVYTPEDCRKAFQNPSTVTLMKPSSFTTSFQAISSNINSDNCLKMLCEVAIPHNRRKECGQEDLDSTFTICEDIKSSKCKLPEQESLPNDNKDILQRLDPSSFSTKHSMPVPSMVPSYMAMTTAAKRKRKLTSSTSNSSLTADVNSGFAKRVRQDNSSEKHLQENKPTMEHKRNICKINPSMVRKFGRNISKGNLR
Sequence (Q2XVP4 whole entry partner, looked up): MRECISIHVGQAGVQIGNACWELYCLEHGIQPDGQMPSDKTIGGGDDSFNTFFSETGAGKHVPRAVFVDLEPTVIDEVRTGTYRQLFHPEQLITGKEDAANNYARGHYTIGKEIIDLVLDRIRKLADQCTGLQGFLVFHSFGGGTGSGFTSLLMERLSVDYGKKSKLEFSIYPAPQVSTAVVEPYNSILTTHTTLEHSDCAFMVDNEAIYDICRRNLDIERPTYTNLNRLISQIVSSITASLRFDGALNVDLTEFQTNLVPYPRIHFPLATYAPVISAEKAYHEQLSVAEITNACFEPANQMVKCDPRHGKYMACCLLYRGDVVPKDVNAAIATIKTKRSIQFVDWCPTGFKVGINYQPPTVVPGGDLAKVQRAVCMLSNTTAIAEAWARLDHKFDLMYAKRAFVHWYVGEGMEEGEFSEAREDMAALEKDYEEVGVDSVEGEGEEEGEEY
Sequence (P02554 whole entry partner, looked up): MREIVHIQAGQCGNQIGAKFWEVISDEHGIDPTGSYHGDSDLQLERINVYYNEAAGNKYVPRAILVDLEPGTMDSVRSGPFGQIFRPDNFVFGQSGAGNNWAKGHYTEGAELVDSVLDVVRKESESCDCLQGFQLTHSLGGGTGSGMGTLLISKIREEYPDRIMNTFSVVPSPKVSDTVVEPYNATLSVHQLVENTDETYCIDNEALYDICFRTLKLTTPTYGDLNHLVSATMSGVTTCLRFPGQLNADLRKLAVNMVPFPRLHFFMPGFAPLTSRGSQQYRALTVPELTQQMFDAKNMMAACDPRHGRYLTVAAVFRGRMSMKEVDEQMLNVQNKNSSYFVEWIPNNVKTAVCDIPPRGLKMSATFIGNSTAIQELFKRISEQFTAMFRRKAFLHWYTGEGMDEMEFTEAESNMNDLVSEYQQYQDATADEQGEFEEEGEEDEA

| IC50 [nM] | SMILES |
| --- | --- |
| 11 | C[C@@H]1CCN(S(=O)(=O)c2cccc(C(=O)N3CC4(CCC5(CC5)CC4)c4cc(NS(C)(=O)=O)ccc43)c2)C1 [(R)-Compound 249, (R)-N-(1″-(3-((3-methylpyrrolidin-1-yl)sulfonyl)benzoyl)dispiro[cyclopropane-1,1′-cyclohexane-4′,3″-indolin]-5″- yl)methanesulfonamide] |

same assay, conditions: KIF18A microtubule-dependent ATPase activity, biochemical assay

| SMILES | IC50 [nM] |
| --- | --- |
| COCC(C)NS(=O)(=O)c1cccc(C(=O)N2CC3(CCC4(CC4)CC3)c3cc(NS(C)(=O)=O)ccc32)c1 (centres unmarked) [Compound 200, N-(1-methoxypropan-2-yl)-3-(5″- (methylsulfonamido)dispiro[cyclopropane-1,1′-cyclohexane-4′,3″-indoline]-1″-carbonyl)benzenesulfonamide] | 72 |
| CC1(C)OCC1NS(=O)(=O)c1cccc(C(=O)N2CC3(CCC4(CC4)CC3)c3cc(NS(C)(=O)=O)ccc32)c1 (centres unmarked) [Compound 188, N-(2,2-dimethyloxetan-3-yl)-3-(5″- (methylsulfonamido)dispiro[cyclopropane-1,1′-cyclohexane-4′,3″-indoline]-1″-carbonyl)benzenesulfonamide] | 75 |
| O=C(c1cccc(S(=O)(=O)N2CCCCC2)c1)N1CC2(CCC3(CC3)CC2)c2ccccc21 [Compound 6, dispiro[cyclopropane-1,1′-cyclohexane-4′,3″-indolin]-1″-yl(3-(piperidin-1-ylsulfonyl)phenyl)methanone] | 580 |
| CS(=O)(=O)Nc1ccc2c(c1)C1(CCC3(CC3)CC1)CN2C(=O)c1cccc(S(=O)(=O)NC2CCCCC2)c1 [Compound 180, N-cyclohexyl-3-(5″- (methylsulfonamido)dispiro[cyclopropane-1,1′-cyclohexane-4′,3″-indoline]-1″-carbonyl)benzenesulfonamide] | 11 |
| O=C(c1cccc(S(=O)(=O)N2CCCCC2)c1)N1CC2(CCCCC2)c2cc(O)ccc21 [Compound 166, (5′-hydroxyspiro[cyclohexane-1,3′-indolin]-1′-yl)(3-(piperidin-1-ylsulfonyl)phenyl)methanone] | 1100 |
| CS(=O)(=O)Nc1ccc2c(c1)C1(CCC3(CC3)CC1)CN2C(=O)c1cccc(C(O)C2CCCC2)c1 (centres unmarked) [Compound 165, N-(1″-(3-(cyclopentyl(hydroxy)methyl)benzoyl)dispiro[cyclopropane-1,1′-cyclohexane-4′,3″indolin]-5″- yl)methanesulfonamide] | 15 |
| CS(=O)(=O)Nc1ccc2c(c1)C1(CCCCC1)CN2C(=O)c1cccc(S(=O)(=O)N2CCC(F)C2)c1 (centres unmarked) [Compound 83, N-(1′-(3-((3-fluoropyrrolidin-1-yl)sulfonyl)benzoyl)spiro[cyclohexane-1,3′-indoline]-5′-yl)methanesulfonamide] | 130 |
| CN=S(=O)(c1cccc(C(=O)N2CC3(CCCCC3)c3cc(NS(C)(=O)=O)ccc32)c1)C1CCCC1 (centres unmarked) [Compound 67, N-(1′-(3-(N-methylcyclopentanesulfonimidoyl)benzoyl)spiro[cyclohexane-1,3′-indolin]-5′-yl)methanesulfonamide] | 460 |
| CC(C)(C)NS(=O)(=O)c1cc(C(=O)N2CC3(CCCCC3)c3cc(NS(C)(=O)=O)ccc32)ccc1F [Compound 96, N-(tert-butyl)-2-fluoro-5-(5′-(methylsulfonamido)spiro[cyclohexane-1,3′-indoline]-1′-carbonyl)benzenesulfonamide] | 100 |
| CS(=O)(=O)Nc1ccc2c(c1)C1(CCC3(CC3)CC1)CN2C(=O)c1cccc(S(=O)(=O)N2CC[C@H](F)C2)c1 [(S)-Compound 239, (S)-N-(1″-(3-((3-fluoropyrrolidin-1-yl)sulfonyl)benzoyl)dispiro[cyclopropane-1,1′-cyclohexane-4′,3″-indolin]-5″- yl)methanesulfonamide] | 15 |
| CS(=O)(=O)Nc1ccc2c(c1)C1(CCCCC1)CN2C(=O)c1cccc(S(=O)(=O)NC2CC2)c1 [Compound 46, N-cyclopropyl-3-(5′-(methylsulfonamido)spiro[cyclohexane-1,3′-indoline]-1′-carbonyl)benzenesulfonamide] | 120 |
| CC(C)(C)NS(=O)(=O)c1ccc(C(=O)N2CC3(CCCCC3)c3cc(NS(C)(=O)=O)ccc32)o1 [Compound 149, N-(tert-butyl)-5-(5′-(methylsulfonamido)spiro[cyclohexane-1,3′-indoline]-1′-carbonyl)furan-2-sulfonamide] | 78 |
| CCOC(=O)Nc1ccc2c(c1)C1(CCCCC1)CN2C(=O)c1cccc(S(=O)(=O)N2CCCCC2)c1 [Compound 141, ethyl (1′-(3-(piperidin-1-ylsulfonyl)benzoyl)spiro[cyclohexane-1,3′-indolin]-5′-yl)carbamate] | 1100 |

Now from value to compound:

| IC50 [nM] | SMILES |
| --- | --- |
| 9 | CC1CCN(S(=O)(=O)c2cccc(C(=O)N3CC4(CCC5(CC5)CC4)c4cc(NS(C)(=O)=O)ccc43)c2)C1 (centres unmarked) [Compound 249, N-(1″-(3-((3-methylpyrrolidin-1-yl)sulfonyl)benzoyl)dispiro[cyclopropane-1,1′-cyclohexane-4′,3″-indolin]-5″- yl)methanesulfonamide] |
| 35 | CC(O)(c1cccc(C(=O)N2CC3(CCC4(CC4)CC3)c3cc(NS(C)(=O)=O)ccc32)c1)C1CCCC1 (centres unmarked) [Compound 331, N-(1″-(3-(1-cyclopentyl-1-hydroxyethyl)benzoyl)dispiro[cyclopropane-1,1′-cyclohexane-4′,3″-indolin]-5″-yl)methanesulfonamide] |
| 20 | CS(=O)(=O)Nc1ccc2c(c1)C1(CCC3(CC3)CC1)CN2C(=O)c1cccc(CN2CCC(F)(F)CC2)n1 [Compound 342, N-(1″-(6-((4,4-difluoropiperidin-1-yl)methyl)picolinoyl)dispiro[cyclopropane-1,1′-cyclohexane-4′,3″-indolin]-5″- yl)methanesulfonamide] |
| 22 | CC(=O)NCCCS(=O)(=O)Nc1ccc2c(c1)C1(CCC3(CC3)CC1)CN2C(=O)c1cccc(S(=O)(=O)NC(C)(C)C)c1 [Compound 292, N-(3-(N-(1″-(3-(N-(tert-butyl)sulfamoyl)benzoyl)dispiro [cyclopropane-1,1′-cyclohexane-4′,3″- indolin]-5″- yl)sulfamoyl)propyl)acetamide] |
| 80 | CS(=O)(=O)Nc1ccc2c(c1)C1(CCC3(CC3)CC1)CN2C(=O)c1cccc(S(=O)(=O)NC(CO)C2CC2)c1 (centres unmarked) [Compound 214, N-(1-cyclopropyl-2-hydroxyethyl)-3-(5″- (methylsulfonamido)dispiro[cyclopropane-1,1′-cyclohexane-4′,3″-indoline]-1″-carbonyl)benzenesulfonamide] |
| 3 | O=C(c1ccc(C(O)C2CCCC2)o1)N1CC2(CCC3(CC3)CC2)c2cc(NS(=O)(=O)CCO)ccc21 (single isomer, unassigned) [Compound 368a] |
| 15 | CC(C)(C)NS(=O)(=O)c1cccc(C(=O)N2C[C@]3(CC[C@H](C(F)(F)F)CC3)c3cc(NS(C)(=O)=O)ccc32)c1 [Compound 361a] |
| 77 | CC(C)(C)NS(=O)(=O)c1csc(C(=O)N2CC3(CCC4(CC4)CC3)c3cc(NS(C)(=O)=O)ccc32)c1 [Compound 268, N-(tert-butyl)-5-(5″- (methylsulfonamido)dispiro[cyclopropane-1,1′-cyclohexane-4′,3″-indoline]-1″-carbonyl)thiophene-3-sulfonamide] |
| 21 | C=C1CCC2(CC1)CN(C(=O)c1cccc(S(=O)(=O)NC(C)(C)C)c1)c1ccc(NS(C)(=O)=O)cc12 [Compound 324, N-(tert-butyl)-3-(4-methylene-5′-(methylsulfonamido)spiro[cyclohexane-1,3′-indoline]-1′-carbonyl)benzenesulfonamide] |
| 28 | CS(=O)(=O)Nc1ccc2c(c1)C1(CCC3(CC3)CC1)CN2C(=O)c1cccc(C(O)CN2CC(F)(F)C2)c1 (centres unmarked) [Compound 314, N-(1″-(3-(2-(3,3-difluoroazetidin-1-yl)-1-hydroxyethyl)benzoyl)dispiro[cyclopropane-1,1′-cyclohexane-4′,3″-indolin]-5″-yl)methanesulfonamide] |
| 3.9 | CCS(=O)(=O)Nc1ccc2c(c1)C1(CCC3(CC3)CC1)CN2C(=O)c1ccc(C(O)C2CCCC2)o1 (single isomer, unassigned) [Compound 367a] |
| 100 | CS(=O)(=O)Nc1ccc2c(c1)C1(CCC3(CC3)CC1)CN2C(=O)c1cccc(S(=O)(=O)NC2CC(O)C2)c1 (centres unmarked) [Compound 218, N-(3-hydroxycyclobutyl)-3-(5″- (methylsulfonamido)dispiro[cyclopropane-1,1′-cyclohexane-4′,3″-indoline]-1″-carbonyl)benzenesulfonamide] |
| 27 | CC1(NS(=O)(=O)c2cccc(C(=O)N3CC4(CCC5(CC5)CC4)c4cc(NS(C)(=O)=O)ccc43)c2)COC1 [Compound 206, N-(3-methyloxetan-3-yl)-3-(5″- (methylsulfonamido)dispiro[cyclopropane-1,1′-cyclohexane-4′,3″-indoline]-1″-carbonyl)benzenesulfonamide] |
| 40 | CC(C)(C)[C@H](O)c1ccc(C(=O)N2CC3(CCC4(CC4)CC3)c3cc(NS(=O)(=O)CCO)ccc32)o1 (single isomer, unassigned) [Compound 371b] |
| 11 | CC1CCC(NS(=O)(=O)c2cccc(C(=O)N3CC4(CCC5(CC5)CC4)c4cc(NS(C)(=O)=O)ccc43)c2)C1 (centres unmarked) [Compound 285, N-(3-methylcyclopentyl)-3-(5″- (methylsulfonamido)dispiro[cyclopropane-1,1′-cyclohexane-4′,3″-indoline]-1″-carbonyl)benzenesulfonamide] |
| 8 | CCS(=O)(=O)Nc1ccc2c(c1)C1(CCC3(CC3)CC1)CN2C(=O)c1csc(S(=O)(=O)NC(C)(C)C)c1 [Compound 275, N-(tert-butyl)-4-(5″- (ethylsulfonamido)dispiro[cyclopropane-1,1′-cyclohexane-4′,3″-indoline]-1″- carbonyl)thiophene-2-sulfonamide] |
| 11 | CS(=O)(=O)Nc1ccc2c(c1)C1(CCC3(CC3)CC1)CN2C(=O)c1cccc(C(O)C2CCCC2)n1 (centres unmarked) [Compound 317, N-(1″-(6-(cyclopentyl(hydroxy)methyl)picolinoyl)dispiro[cyclopropane-1,1′-cyclohexane-4′,3″-indolin]-5″- yl)methanesulfonamide] |
| 4.8 | CCS(=O)(=O)Nc1ccc2c(c1)C1(CCC3(CC3)CC1)CN2C(=O)c1ccc(C(O)C2CCCC2)o1 (single isomer, unassigned) [Compound 367b] |
